Experimental data as given in ChEMBL document CHEMBL3856191, “Structural modifications at the 6-position of thieno[2,3-d]pyrimidines and their effects on potency at FLT3 for treatment of acute myeloid leukemia” (Eur J Med Chem, 2016).

Experiments:
[1] = biological target: Fibroblast growth factor receptor 3 (Homo sapiens) (UniProt P22607); assay: Inhibition of recombinant human FGFR3 expressed in insect Sf21 cells assessed as remaining activity at 10 uM preincubated for 15 mins followed by poly(Glu:Tyr) substrate addition for 30 mins in presence of [gamma-32P]ATP by […] assay
[2] = tested on: Tyrosine-protein kinase ABL1 (Homo sapiens), P00519 [T315I]; assay: Inhibition of human ABL T315I mutant assessed as remaining activity at 10 uM preincubated for 15 mins followed by poly(Glu:Tyr) substrate addition for 30 mins in presence of [gamma-32P]ATP by […] assay
[3] = biological target: PI3K p110 beta/p85 alpha (Homo sapiens) (UniProt P27986+P42338); assay: Inhibition of PI3K p110beta/p85alpha (unknown origin) assessed as remaining activity at 10 uM in presence of [gamma-32P]ATP by […] assay; type: protein-complex assay
[4] = biological target: Tyrosine-protein kinase ABL2 (Homo sapiens) (UniProt P42684); assay: Inhibition of human recombinant ARG expressed in sf21 cells assessed as remaining activity at 10 uM preincubated for 15 mins followed by Poly(Glu:Tyr) addition measured after 30 mins in presence of [gamma-32P]ATP by […] assay
Tyrosine-protein kinase ABL2 (Homo sapiens), sequence (P42684 whole entry): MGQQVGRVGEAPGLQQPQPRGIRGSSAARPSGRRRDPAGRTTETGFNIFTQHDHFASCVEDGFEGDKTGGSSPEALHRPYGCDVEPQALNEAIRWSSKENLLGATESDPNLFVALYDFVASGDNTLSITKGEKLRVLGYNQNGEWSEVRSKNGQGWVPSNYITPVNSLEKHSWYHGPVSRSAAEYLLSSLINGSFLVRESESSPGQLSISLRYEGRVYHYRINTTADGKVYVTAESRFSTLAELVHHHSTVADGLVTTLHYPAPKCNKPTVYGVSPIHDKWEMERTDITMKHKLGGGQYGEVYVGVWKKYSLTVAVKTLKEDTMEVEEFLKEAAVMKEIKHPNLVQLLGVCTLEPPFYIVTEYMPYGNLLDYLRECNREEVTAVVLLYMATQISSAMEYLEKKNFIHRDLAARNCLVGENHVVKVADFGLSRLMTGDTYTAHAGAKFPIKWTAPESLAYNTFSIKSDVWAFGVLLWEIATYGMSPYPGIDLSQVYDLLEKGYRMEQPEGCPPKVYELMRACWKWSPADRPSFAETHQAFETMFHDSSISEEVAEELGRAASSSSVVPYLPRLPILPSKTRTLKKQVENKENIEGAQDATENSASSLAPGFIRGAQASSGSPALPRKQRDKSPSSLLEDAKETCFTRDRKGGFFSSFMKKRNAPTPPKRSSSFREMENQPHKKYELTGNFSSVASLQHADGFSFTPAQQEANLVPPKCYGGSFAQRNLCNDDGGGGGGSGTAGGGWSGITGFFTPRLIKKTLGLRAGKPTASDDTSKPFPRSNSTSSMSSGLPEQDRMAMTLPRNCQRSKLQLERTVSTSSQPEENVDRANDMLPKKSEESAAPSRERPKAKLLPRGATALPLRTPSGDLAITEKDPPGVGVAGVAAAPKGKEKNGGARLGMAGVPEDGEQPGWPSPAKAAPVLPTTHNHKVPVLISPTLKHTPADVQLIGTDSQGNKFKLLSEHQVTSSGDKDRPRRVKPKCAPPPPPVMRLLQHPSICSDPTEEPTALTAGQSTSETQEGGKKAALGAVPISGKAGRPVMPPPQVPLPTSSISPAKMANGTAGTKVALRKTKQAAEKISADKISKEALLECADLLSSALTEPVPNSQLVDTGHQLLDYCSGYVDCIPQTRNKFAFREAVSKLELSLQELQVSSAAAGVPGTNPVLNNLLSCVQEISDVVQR

[5] = biological target: Mitogen-activated protein kinase 14 (Homo sapiens) (UniProt Q16539); assay: Inhibition of human SAPK2a assessed as remaining activity at 10 uM in presence of [gamma-32P]ATP by […] assay
Mitogen-activated protein kinase 14 (Homo sapiens), sequence (Q16539 whole entry): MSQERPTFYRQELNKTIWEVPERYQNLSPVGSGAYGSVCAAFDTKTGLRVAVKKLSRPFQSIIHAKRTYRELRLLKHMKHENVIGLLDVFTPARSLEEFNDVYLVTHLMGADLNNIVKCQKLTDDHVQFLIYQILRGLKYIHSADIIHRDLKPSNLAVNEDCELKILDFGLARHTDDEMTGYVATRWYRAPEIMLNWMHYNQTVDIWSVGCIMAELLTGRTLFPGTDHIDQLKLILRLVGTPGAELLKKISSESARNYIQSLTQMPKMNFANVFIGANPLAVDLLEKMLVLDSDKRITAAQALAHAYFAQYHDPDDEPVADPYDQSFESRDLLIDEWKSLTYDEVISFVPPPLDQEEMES

[6] = Clearance in Sprague-Dawley rat at 5 mg/kg, iv up to 24 hrs by LC/MS/MS analysis; type: ADME, organism-based; conditions: in vivo
[7] = biological target: PI3-kinase p110-alpha/p85-alpha (Homo sapiens) (UniProt P27986+P42336); assay: Inhibition of PI3K P110alpha/p85alpha (unknown origin) assessed as remaining activity at 10 uM in presence of [gamma-32P]ATP by […] assay; type: protein-complex assay
[8] = Oral bioavailability in Sprague-Dawley rat at 30 mg/kg up to 24 hrs by LC/MS/MS analysis; type: ADME, organism-based; conditions: in vivo
[9] = biological target: Mitogen-activated protein kinase 13 (Homo sapiens) (UniProt O15264); assay: Inhibition of human SAPK4 assessed as remaining activity at 10 uM in presence of [gamma-32P]ATP by […] assay
Mitogen-activated protein kinase 13 (Homo sapiens), sequence (O15264 whole entry): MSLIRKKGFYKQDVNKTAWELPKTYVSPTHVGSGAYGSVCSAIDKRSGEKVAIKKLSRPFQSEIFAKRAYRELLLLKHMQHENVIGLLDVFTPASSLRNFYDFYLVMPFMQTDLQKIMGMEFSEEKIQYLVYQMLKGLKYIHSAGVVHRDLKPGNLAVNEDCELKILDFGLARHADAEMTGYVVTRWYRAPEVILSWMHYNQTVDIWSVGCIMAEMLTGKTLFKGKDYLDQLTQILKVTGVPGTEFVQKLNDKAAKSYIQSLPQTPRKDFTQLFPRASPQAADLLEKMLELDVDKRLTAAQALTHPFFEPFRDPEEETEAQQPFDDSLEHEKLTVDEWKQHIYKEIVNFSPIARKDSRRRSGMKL

[10] = biological target: Inhibitor of nuclear factor kappa-B kinase subunit alpha (Homo sapiens) (UniProt O15111); assay: Inhibition of recombinant human IKK-alpha expressed in insect Sf21 cells assessed as remaining activity at 10 uM preincubated for 15 mins followed by IKKtide substrate addition for 30 mins in presence of [gamma-32P]ATP by […] assay
[11] = biological target: Macrophage colony-stimulating factor 1 receptor (Homo sapiens) (UniProt P07333); assay: Inhibition of recombinant human FMS expressed in insect Sf21 cells assessed as remaining activity at 10 uM preincubated for 15 mins followed by poly(Glu:Tyr) substrate addition for 30 mins in presence of [gamma-32P]ATP by […] assay
[12] = biological target: Tyrosine-protein kinase Lck (Homo sapiens) (UniProt P06239); assay: Inhibition of recombinant human LCK expressed in insect cells assessed as remaining activity at 10 uM preincubated for 15 mins followed by poly(Glu:Tyr) substrate addition for 30 mins in presence of [gamma-32P]ATP by […] assay
[13] = Volume of distribution at steady state in Sprague-Dawley rat at 5 mg/kg, iv up to 24 hrs by LC/MS/MS analysis; type: ADME, organism-based; conditions: in vivo, read-out: Vdss
[14] = biological target: Rho-associated protein kinase 2 (Homo sapiens) (UniProt O75116); assay: Inhibition of human recombinant ROCK-2 expressed in sf21 cells assessed as remaining activity at 10 uM preincubated for 15 mins followed by Long S6 kinase substrate addition measured after 30 mins in presence of [gamma-32P]ATP by […] assay
[15] = biological target: Aurora kinase B (Homo sapiens) (UniProt Q96GD4); assay: Inhibition of human AURORA B assessed as remaining activity at 10 uM preincubated for 15 mins followed by substrate addition for 30 mins in presence of [gamma-32P]ATP by […] assay
[16] = biological target: MAP kinase-activated protein kinase 2 (Homo sapiens) (UniProt P49137); assay: Inhibition of recombinant human MAPKAPK2 expressed in Escherichia coli assessed as remaining activity at 10 uM preincubated for 15 mins followed by MAPKAPK substrate peptide addition for 30 mins in presence of [gamma-32P]ATP by […] assay
[17] = Metabolic stability in human liver microsomes assessed as compound remaining at 1 uM after 30 mins in presence of NADPH by HPLC-MS analysis; type: ADME; conditions: read-out: Stability
[18] = AUC (0 to infinity) in Sprague-Dawley rat at 30 mg/kg, up to 24 hrs by LC/MS/MS analysis; type: ADME, organism-based; design: dose 30 mg/kg, time infinity; conditions: in vivo
[19] = biological target: Vascular endothelial growth factor receptor 3 (Homo sapiens) (UniProt P35916); assay: Inhibition of recombinant human FLT4 expressed in insect cells assessed as remaining activity at 10 uM preincubated for 15 mins followed by poly(Glu:Tyr) substrate addition for 30 mins in presence of [gamma-32P]ATP by […] assay
Vascular endothelial growth factor receptor 3 (Homo sapiens), sequence (P35916 whole entry): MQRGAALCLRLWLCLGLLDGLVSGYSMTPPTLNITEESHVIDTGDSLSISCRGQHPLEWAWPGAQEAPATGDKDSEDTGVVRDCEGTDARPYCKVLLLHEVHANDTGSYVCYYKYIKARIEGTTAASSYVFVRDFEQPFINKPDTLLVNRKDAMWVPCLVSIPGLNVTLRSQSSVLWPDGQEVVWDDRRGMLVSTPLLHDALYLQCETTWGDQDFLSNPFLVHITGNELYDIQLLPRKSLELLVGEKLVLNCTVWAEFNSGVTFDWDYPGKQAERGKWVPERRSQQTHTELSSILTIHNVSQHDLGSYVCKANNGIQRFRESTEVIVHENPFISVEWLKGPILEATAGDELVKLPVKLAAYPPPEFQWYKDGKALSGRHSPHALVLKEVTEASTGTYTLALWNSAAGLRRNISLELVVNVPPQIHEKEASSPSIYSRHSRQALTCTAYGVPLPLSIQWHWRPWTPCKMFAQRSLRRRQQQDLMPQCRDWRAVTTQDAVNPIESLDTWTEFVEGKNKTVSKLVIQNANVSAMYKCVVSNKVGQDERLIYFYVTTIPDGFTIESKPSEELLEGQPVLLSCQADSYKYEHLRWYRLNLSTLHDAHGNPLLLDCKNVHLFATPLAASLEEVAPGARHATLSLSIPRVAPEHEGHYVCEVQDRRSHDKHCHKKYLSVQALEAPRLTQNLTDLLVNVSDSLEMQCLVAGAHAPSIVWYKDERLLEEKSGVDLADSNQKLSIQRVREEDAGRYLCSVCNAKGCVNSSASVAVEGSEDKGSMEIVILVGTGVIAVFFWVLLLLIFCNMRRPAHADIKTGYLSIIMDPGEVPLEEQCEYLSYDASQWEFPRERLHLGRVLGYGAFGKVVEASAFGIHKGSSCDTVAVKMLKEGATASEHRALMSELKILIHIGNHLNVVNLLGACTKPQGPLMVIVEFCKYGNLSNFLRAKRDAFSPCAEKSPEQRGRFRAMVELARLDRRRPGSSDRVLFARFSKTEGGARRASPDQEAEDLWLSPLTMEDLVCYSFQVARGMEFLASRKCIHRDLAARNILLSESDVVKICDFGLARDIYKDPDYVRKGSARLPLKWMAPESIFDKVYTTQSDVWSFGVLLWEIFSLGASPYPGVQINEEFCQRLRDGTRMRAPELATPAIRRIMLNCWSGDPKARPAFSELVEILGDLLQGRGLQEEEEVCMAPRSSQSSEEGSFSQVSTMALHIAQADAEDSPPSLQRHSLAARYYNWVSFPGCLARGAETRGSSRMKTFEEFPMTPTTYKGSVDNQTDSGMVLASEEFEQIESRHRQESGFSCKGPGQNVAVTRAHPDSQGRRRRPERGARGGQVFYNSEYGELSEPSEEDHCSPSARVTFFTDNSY

[20] = biological target: Serine/threonine-protein kinase mTOR (Homo sapiens) (UniProt P42345); assay: Inhibition of human mTOR assessed as remaining activity at 10 uM in presence of [gamma-32P]ATP by […] assay
[21] = biological target: Serine-protein kinase ATM (Homo sapiens) (UniProt Q13315); assay: Inhibition of human ATM assessed as remaining activity at 10 uM preincubated for 15 mins followed by substrate addition for 30 mins in presence of [gamma-32P]ATP by […] assay
[22] = Elimination half life in Sprague-Dawley rat at 5 mg/kg, iv by LC/MS/MS analysis; type: ADME, organism-based; conditions: in vivo, read-out: beta t1/2 (converted)
[23] = biological target: Tyrosine-protein kinase BTK (Homo sapiens) (UniProt Q06187); assay: Inhibition of recombinant human BTK expressed in insect Sf21 cells assessed as remaining activity at 10 uM preincubated for 15 mins followed by poly(Glu:Tyr) substrate addition for 30 mins in presence of [gamma-32P]ATP by […] assay
Tyrosine-protein kinase BTK (Homo sapiens), sequence (Q06187 whole entry): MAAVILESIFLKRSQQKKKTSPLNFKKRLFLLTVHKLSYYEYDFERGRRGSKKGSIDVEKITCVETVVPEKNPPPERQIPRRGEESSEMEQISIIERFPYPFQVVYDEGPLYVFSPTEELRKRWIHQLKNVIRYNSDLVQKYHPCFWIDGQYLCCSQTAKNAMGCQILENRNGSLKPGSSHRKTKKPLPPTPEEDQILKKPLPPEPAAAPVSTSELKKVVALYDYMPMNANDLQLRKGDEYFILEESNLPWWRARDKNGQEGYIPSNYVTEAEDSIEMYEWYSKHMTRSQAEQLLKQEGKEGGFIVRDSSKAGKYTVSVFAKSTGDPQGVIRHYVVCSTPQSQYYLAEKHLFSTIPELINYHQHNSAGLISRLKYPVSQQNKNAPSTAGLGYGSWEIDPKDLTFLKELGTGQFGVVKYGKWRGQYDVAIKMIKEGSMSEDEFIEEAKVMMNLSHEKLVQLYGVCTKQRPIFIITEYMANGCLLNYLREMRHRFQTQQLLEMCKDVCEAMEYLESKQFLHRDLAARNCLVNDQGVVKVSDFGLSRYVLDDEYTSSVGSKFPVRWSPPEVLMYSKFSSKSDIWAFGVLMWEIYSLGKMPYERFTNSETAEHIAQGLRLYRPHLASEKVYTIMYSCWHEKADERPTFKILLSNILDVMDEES

[24] = biological target: Tyrosine-protein kinase ZAP-70 (Homo sapiens) (UniProt P43403); assay: Inhibition of recombinant human ZAP-70 expressed in insect Sf21 cells assessed as remaining activity at 10 uM preincubated for 15 mins followed by poly(Glu:Tyr) substrate addition for 30 mins in presence of [gamma-32P]ATP by […] assay
[25] = Tmax in Sprague-Dawley rat at 30 mg/kg, po by LC/MS/MS analysis; type: ADME, organism-based; conditions: in vivo
Angiopoietin-1 receptor = Angiopoietin-1 receptor (Homo sapiens, UniProt Q02763); assay: Inhibition of human TIE2 preincubated for 15 mins followed by substrate addition measured after 30 mins in presence of [gamma-32P]ATP by […] assay
Angiopoietin-1 receptor, sequence (Q02763 whole entry): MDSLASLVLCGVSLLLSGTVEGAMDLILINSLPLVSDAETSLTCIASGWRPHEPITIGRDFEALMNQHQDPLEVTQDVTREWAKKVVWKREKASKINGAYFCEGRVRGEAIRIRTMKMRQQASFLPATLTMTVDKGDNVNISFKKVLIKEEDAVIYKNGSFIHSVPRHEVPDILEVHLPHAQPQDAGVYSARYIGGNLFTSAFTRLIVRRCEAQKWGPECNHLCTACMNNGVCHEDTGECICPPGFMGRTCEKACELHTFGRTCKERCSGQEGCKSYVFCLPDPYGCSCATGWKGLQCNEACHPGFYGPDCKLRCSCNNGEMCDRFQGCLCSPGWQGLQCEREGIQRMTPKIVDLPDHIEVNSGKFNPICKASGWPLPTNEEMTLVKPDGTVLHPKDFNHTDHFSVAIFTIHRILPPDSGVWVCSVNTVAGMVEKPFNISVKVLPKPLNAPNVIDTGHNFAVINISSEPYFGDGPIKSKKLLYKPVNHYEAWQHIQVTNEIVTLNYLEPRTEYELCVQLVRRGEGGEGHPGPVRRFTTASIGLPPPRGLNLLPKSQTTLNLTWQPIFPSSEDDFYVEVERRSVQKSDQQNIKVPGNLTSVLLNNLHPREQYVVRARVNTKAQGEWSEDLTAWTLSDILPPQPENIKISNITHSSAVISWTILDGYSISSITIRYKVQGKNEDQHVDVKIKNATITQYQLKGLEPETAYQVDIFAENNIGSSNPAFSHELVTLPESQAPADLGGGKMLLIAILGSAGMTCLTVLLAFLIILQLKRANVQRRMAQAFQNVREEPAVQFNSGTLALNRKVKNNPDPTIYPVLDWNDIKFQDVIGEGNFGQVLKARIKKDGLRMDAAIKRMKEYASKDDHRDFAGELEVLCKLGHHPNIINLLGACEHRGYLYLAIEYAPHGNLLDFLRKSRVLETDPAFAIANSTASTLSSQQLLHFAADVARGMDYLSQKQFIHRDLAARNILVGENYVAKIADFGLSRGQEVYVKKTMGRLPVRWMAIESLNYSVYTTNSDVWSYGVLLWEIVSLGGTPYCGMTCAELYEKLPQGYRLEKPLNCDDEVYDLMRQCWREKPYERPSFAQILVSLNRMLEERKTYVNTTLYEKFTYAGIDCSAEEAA

**Q.** Which results are given for `CNCCOc1ccc(-c2sc3nc(-c4cccs4)nc(NN4C(=O)C=C(C)C4=O)c3c2C)cc1.Cl`?
**A.** Activity [1]: 72%; Activity [2]: 44%; Activity [3]: 70%; Activity [4]: 52%; Activity [5]: 92%; clearance [6]: 36.6 mL/min/kg; Activity [7]: 96%; bioavailability [8]: 17%; Activity [9]: 93%; Activity [10]: 101%; Activity [11]: 78%; Activity [12]: 31%; Vd [13]: 8.22 L/kg; Activity [14]: 93%; Activity [15]: 42%; Activity [16]: 63 to 100%; remaining at 0.5 h, 1 µM [17]: 79.8%; AUC(0-inf) [18]: 2170 ng·h/mL; Activity [19]: 24%; Activity [20]: 79%; Activity [21]: 30%; half-life [22]: 7.61 h; Activity [23]: 83%; Activity [24]: 101%; Tmax [25]: 0.25 h; IC50 (Angiopoietin-1 receptor): 9.75 µM
